According to paper PMC5845353, “The selective cathepsin K inhibitor MIV-711 attenuates joint pathology in experimental animal models of osteoarthritis” (Journal of Translational Medicine, 2018):
Values joined by “and” are separate entries in the source; they are usually repeats but may differ in a detail not shown here. Identical values can stand only once.

Experiments:
plasma proteins [1] = experiment: Fraction bound to plasma proteins, dog; type: in vitro ADME
plasma proteins [2] = experiment: Fraction bound to plasma proteins, rabbit; type: in vitro ADME
CTX-I = experiment: Urinary CTX-I in dogs subjected to partial medial meniscectomy; type: in vivo; conditions: dog, 30 µmol/kg
Procedure: Dogs subjected to partial medial meniscectomy received either 30 µmol/kg MIV-711 (synthesized by Medivir and given as a suspension in 1% Methocel A4C; n = 15) or vehicle (1% Methocel A4C; n = 15) by orogastric gavage once daily in the morning. […] Dosing started the day before surgery and lasted through Day 28, the day before necropsy. Each dog was fasted for at least 12 h before dosing and food were returned approximately 4 h following test article administration.
Urine samples were collected from the animals 1 to 3 days before surgery and treatment (baseline sample), 4 to 7 days after the start of treatment (Day 7 sample) and 26 to 28 days after treatment (Day 28 sample). Dogs were housed in metabolic cages overnight during urine collection. […]
In rabbits, conventional CTX-I assays to assess bone resorption cannot be used due to species differences. Instead, urinary helical peptide (HP-1) concentrations were measured in rabbits using the MicroVue Helical Peptide kit (Ref: 8022) from Quidel (San Diego, CA) according to the instructions supplied by the manufacturer. In dogs, urinary levels of C-terminal telopeptide of collagen type I (CTX-I) were measured using a commercially available kit (Urine BETA CrossLaps ELISA, Ref: AC-05F1, IDS Nordic Bioscience Diagnostics A/S). […] In dogs, CTX-II levels were also measured in synovial fluid. […]

[3] = tested on: dogs subjected to partial medial meniscectomy; experiment: Dog partial medial meniscectomy study, sclerosis of subchondral bone and bone area; type: in vivo
Description: Sclerosis of subchondral bone (an indication of altered load-bearing) was described and documented for femur using a comparison of medial to lateral, but was not included in the overall cartilage degeneration scores. This parameter was scored based on percent width of the medial femur with obviously thickened subchondral bone according to the following criteria: 0=normal 1=up to 10% of femur width has thickened trabeculae 2=11-30 % of femur width has thickened trabeculae 3=31-60 % of femur width has thickened trabeculae 4=61-90 % of femur width has thickened trabeculae 5=>90% of femur width has thickened trabeculae An additional measure of bone area was performed as follows: The photo file was opened and a fixed segment of 1000 by 400 pixels was selected with the bottom left and right corners touching the tidemark: The selected segment was opened in a new file and segmented into fourths: Black lines were drawn on the three segmenting lines in areas of no bone: Lengths of each individual drawn segment were summed per line for a total length of area of no bone, then divided by the total length of the image and calculated into a percent. Percent of no bone was calculated for each of the three segmented lines and then averaged for a mean percent of no bone for the image.

[4] = tested on: dogs subjected to partial medial meniscectomy; experiment: Dog partial medial meniscectomy study, cartilage area image analysis; type: in vivo
Procedure: In order to quantitate and compare the cartilage matrix preservation, cartilage area measurements were taken from the most severely affected section of each animal. In this section, the most severely affected area - generally zone 2 - is analyzed at 25x magnification. Photomicrographs were taken with a digital microscope camera, and analyzed with appropriate software. The following measurements were taken:
Total area from the tidemark to the surface (or projected surface in degenerated areas), extending from the axial to abaxial aspects of the medial tibial plateau zones in the most severely affected area (generally zone 2)
Area of non-viable matrix (cartilage with less than 50% chondrocytes, proteoglycan, and intact collagen) and no matrix within the total area of zone 2 or most severely affected area in the photomicrograph
Area of no matrix within the total area being analyzed
The area of non-viable matrix in zone under analysis was subtracted from the total area in the photomicrograph to get the area of viable matrix in this area, and the area of no matrix was subtracted from the total area to get the area of any matrix (collagen matrix with or without chondrocytes and proteoglycan). These two values were then compared back to the total area to derive the % viable area and the % any matrix in this area of greatest lesion severity, which were compared between groups.

[5] = dog partial medial meniscectomy, group Mean
[6] = dog partial medial meniscectomy, versus Vehicle group
[7] = individual animals of MIV-711 group, per section level (first line of animal, L2, L3)

C#C[C@@H]1CN(C(=O)[C@H](CC(C)C)NC(=O)c2ccc(-c3nc(N4CCN(C)CC4)sc3F)cc2)[C@@H]2C(=O)CO[C@H]12 [MIV-711]
fraction bound to plasma proteins (plasma proteins [1]): 90% | fraction bound to plasma proteins (plasma proteins [2]): 92% | urinary CTX-I levels reduced by (CTX-I; Day 7, vs. baseline): 78% | urinary CTX-I levels reduced by (CTX-I; Day 28, vs. baseline): 86% | Bone Score ([3]; MIV-711 group mean, sclerosis of subchondral bone): 3.07 | % inhibition, Bone Score ([3]; MIV-711 group vs vehicle): 4% | Percent Length of no Bone, LFC Mean [3, 5]: 57% | Percent Length of no Bone, LFC Site 1 [3, 5]: 59% | Percent Length of no Bone, LFC Site 2 [3, 5]: 58% | Percent Length of no Bone, LFC Site 3 [3, 5]: 54% | Percent Length of no Bone, MFC Mean [3, 5]: 39% | Percent Length of no Bone, MFC Site 1 [3, 5]: 42% | Percent Length of no Bone, MFC Site 2 [3, 5]: 39% | Percent Length of no Bone, MFC Site 3 [3, 5]: 36% | Percent Length of no Bone, Overall Mean [3, 5]: 48% | Percent Length of no Bone, LFC Site 2 ([3]; dog partial medial meniscectomy, individual animal, LFC site 2): 50% and 62% and 55% and 63% and 66% and 57% and 51% and 54% and 59% and 45% and 60% and 72% | Percent Length of no Bone, LFC Site 3 ([3]; dog partial medial meniscectomy, individual animal, LFC site 3): 42% and 48% and 49% and 64% and 60% and 58% and 45% and 59% and 47% and 46% and 56% and 71% and 52% | Percent Length of no Bone, MFC Site 1 ([3]; dog partial medial meniscectomy, individual animal, MFC site 1): 47% and 50% and 24% and 35% and 52% and 38% and 36% and 57% and 44% and 48% and 51% and 21% | Percent Length of no Bone, MFC Site 2 ([3]; dog partial medial meniscectomy, individual animal, MFC site 2): 32% and 42% and 21% and 39% and 46% and 38% and 52% and 37% and 34% and 51% and 27% and 57% and 26% and 36% | Percent Length of no Bone, MFC Site 3 ([3]; dog partial medial meniscectomy, individual animal, MFC site 3): 34% and 33% and 21% and 36% and 51% and 24% and 32% and 22% and 49% and 44% and 41% and 40% | Percent Length of no Bone, LFC Site 1 ([3]; dog partial medial meniscectomy, individual animal, lateral femoral condyle site 1): 58% and 64% and 49% and 53% and 63% and 54% and 70% and 57% and 61% and 46% and 66% and 67% | Percent Length of no Bone, LFC Mean ([3]; dog partial medial meniscectomy, individual animal, mean of LFC sites 1-3): 50% and 58% and 51% and 60% and 63% and 56% and 55% and 54% and 52% and 70% | Percent Length of no Bone, MFC Mean ([3]; dog partial medial meniscectomy, individual animal, mean of MFC sites 1-3): 38% and 42% and 22% and 37% and 50% and 33% and 51% and 35% and 30% and 52% and 46% | Percent Length of no Bone, Overall Mean ([3]; dog partial medial meniscectomy, individual animal, overall mean LFC and MFC): 44% and 50% and 37% and 48% and 56% and 45% and 53% and 54% and 46% and 49% | % inhibition of Percent Length of no Bone, LFC Mean [3, 6]: 1% | % inhibition of Percent Length of no Bone, LFC Site 1 [3, 6]: -4% | % inhibition of Percent Length of no Bone, LFC Site 2 [3, 6]: 2% | % inhibition of Percent Length of no Bone, LFC Site 3 [3, 6]: 6% | % inhibition of Percent Length of no Bone, MFC Mean [3, 6]: -10% | % inhibition of Percent Length of no Bone, MFC Site 1 [3, 6]: -12% | % inhibition of Percent Length of no Bone, MFC Site 2 [3, 6]: 1% | % inhibition of Percent Length of no Bone, MFC Site 3 [3, 6]: -21% | % inhibition of Percent Length of no Bone, Overall Mean [3, 6]: -3% | effects on subchondral bone sclerosis and bone area at the microscopic level ([3]; dog, 30 µmol/kg): no significant effects | Bone Score ([3]; individual dogs of MIV-711 group, scoring of sclerosis of subchondral bone): 5 and 3 and 4 and 2 and 1 | Cartilage Area: % Any Matrix Area ([4]; group Mean): 96% | Cartilage Area: % Viable Area ([4]; group Mean): 88% | Cartilage Area: % Any Matrix Area [4, 7]: 100% | Cartilage Area: % Viable Area [4, 7]: 100% | Percent Inhibition, % Any Matrix Area ([4]; versus Vehicle): -11% | Percent Inhibition, % Viable Area ([4]; versus Vehicle): 8%
